According to ChEMBL document CHEMBL4725292 (J Med Chem, 2020):

Assays:
[1] = Lipophilicity, logD of the compound at pH 7.4 by chromatographic method; assay type: physicochemical; details: buffer
[2] = biological target: Bromodomain-containing protein 4 (Homo sapiens, UniProt O60885, Y390A); assay: Displacement of Alexa Fluor 647 labelled ligand from His6-thr-tagged BRD4 BD1 (1 to 477 residues)/BD2 Y390A mutant (unknown origin) after 30 mins by TR-FRET assay
[3] = system: Bromodomain-containing protein 4 (Homo sapiens), O60885 [UNDEFINED MUTATION]; assay: Selectivity index, […] for His6-thr-tagged BRD4 BD1 (1 to 477 residues)/BD2 Y390A mutant (unknown origin) to pIC50 for His6-tagged BRD4 BD2 (1 to 477 residues)/BD1 Y97A mutant (unknown origin)
[4] = biological target: Bromodomain-containing protein 4 (Homo sapiens, UniProt O60885, Y97A); assay: Displacement of Alexa Fluor 647 labelled ligand from His6-tagged BRD4 BD2 (1 to 477 residues)/BD1 Y97A mutant (unknown origin) after 30 mins by TR-FRET assay
[5] = biological target: T1, ATPase family AAA domain-containing protein 2 (Homo sapiens, UniProt Q6PL18); assay: Inhibition of ATAD2 (unknown origin) by TR-FRET assay
T1 sequence (Q6PL18 whole entry): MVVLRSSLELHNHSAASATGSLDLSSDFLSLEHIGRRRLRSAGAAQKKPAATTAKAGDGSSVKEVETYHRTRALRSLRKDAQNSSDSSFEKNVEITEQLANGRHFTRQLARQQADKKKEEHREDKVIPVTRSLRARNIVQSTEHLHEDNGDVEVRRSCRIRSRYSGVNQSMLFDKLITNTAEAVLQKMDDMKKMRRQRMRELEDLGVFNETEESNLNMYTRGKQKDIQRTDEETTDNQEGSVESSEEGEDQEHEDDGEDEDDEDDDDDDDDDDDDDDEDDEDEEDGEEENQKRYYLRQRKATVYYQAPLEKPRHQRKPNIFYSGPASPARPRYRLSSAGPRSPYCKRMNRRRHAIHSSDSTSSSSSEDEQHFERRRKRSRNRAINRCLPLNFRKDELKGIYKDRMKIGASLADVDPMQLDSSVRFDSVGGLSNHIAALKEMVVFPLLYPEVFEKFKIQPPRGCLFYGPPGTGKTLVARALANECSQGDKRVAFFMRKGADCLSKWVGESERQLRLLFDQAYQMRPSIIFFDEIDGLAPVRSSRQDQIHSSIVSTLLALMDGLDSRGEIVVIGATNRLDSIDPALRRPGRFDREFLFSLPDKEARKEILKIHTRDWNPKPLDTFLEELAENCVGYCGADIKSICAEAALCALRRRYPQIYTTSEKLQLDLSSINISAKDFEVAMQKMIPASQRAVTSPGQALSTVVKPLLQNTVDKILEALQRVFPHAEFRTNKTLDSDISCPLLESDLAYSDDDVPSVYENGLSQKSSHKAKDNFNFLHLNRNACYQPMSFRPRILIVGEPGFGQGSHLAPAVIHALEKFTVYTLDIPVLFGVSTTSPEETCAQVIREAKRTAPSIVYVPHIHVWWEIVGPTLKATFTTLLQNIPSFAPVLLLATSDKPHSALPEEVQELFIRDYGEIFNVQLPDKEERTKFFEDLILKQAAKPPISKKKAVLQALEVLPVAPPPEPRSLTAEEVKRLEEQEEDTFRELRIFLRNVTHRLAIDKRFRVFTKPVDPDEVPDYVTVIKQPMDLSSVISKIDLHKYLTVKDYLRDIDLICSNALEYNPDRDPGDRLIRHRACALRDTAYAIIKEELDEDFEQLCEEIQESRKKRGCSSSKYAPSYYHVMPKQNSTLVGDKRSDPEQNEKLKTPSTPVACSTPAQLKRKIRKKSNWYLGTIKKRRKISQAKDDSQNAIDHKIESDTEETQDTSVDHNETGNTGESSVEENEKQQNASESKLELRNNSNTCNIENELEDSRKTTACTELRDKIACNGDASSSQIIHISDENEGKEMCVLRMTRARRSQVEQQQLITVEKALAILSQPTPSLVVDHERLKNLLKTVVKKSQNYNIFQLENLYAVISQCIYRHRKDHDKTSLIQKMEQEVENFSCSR

[6] = Permeability of the compound in pH 7.4 phosphate buffer measured after 3 hrs by artificial membrane permeability assay based HPLC analysis; assay type: ADME; details: PAMPA, pH 7.4, read-out: permeability

CO[C@H]1CNC[C@@H](OCC2CCC(F)(F)CC2)[C@@H]1Nc1ncc(-c2cncc(C)c2)c2cc(C)c(=O)[nH]c12
chromatographic logD [1]: 3.17

Cc1cc2c(-c3cnn(C)c3)cnc(N[C@@H]3CCN(C)C[C@H]3C(=O)NC3CCCCC3)c2[nH]c1=O
IC50 [2]: 0.0794 µM
Selectivity Index [3]: 251
IC50 [4]: 20 µM
chromatographic logD [1]: 2.43

Cc1coc(-c2cnc(N[C@@H]3CCN(C)C[C@H]3C(=O)NC3CCCCC3)c3[nH]c(=O)c(C)cc23)c1
IC50 [2]: 0.0398 µM
Selectivity Index [3]: 501
IC50 [4]: 20 µM
chromatographic logD [1]: 4.46

Cc1cc2c(-c3ccco3)cnc(N[C@H]3CCNC[C@@H]3C(=O)NC3CCCCC3)c2[nH]c1=O
IC50 [2]: 1.58 µM
IC50 [4]: 10 µM
chromatographic logD [1]: 3.12

Cc1ccoc1-c1cnc(N[C@@H]2CCN(C)C[C@H]2C(=O)NC2CCCCC2)c2[nH]c(=O)c(C)cc12
IC50 [2]: 0.0501 µM
Selectivity Index [3]: 316
IC50 [4]: 15.8 µM
chromatographic logD [1]: 4.35

Cc1ccc(-c2cnc(N[C@@H]3CCN(C)C[C@H]3C(=O)NC3CCCCC3)c3[nH]c(=O)c(C)cc23)o1
IC50 [2]: 0.0251 µM
Selectivity Index [3]: 631
IC50 [4]: 15.8 µM
chromatographic logD [1]: 4.33

Cc1cc2c(-c3cccs3)cnc(N[C@@H]3CCN(C)C[C@H]3C(=O)NC3CCCCC3)c2[nH]c1=O
IC50 [2]: 0.0158 µM
Selectivity Index [3]: 251
IC50 [4]: 3.98 µM
chromatographic logD [1]: 4.61

Cc1ccc(-c2cnc(N[C@@H]3CCN(C)C[C@H]3C(=O)NC3CCCCC3)c3[nH]c(=O)c(C)cc23)s1
IC50 [2]: 0.0631 µM
Selectivity Index [3]: > 794
IC50 [4]: > 50.1 µM
chromatographic logD [1]: 5.3

Cc1csc(-c2cnc(N[C@@H]3CCN(C)C[C@H]3C(=O)NC3CCCCC3)c3[nH]c(=O)c(C)cc23)c1
IC50 [2]: 0.0501 µM
Selectivity Index [3]: 316
IC50 [4]: 15.8 µM
chromatographic logD [1]: 5.27

Cc1cc2c(C3=CCCC3)cnc(N[C@@H]3CCNC[C@H]3C(=O)NC3CCCCC3)c2[nH]c1=O (mixture of isomers)
IC50 [2]: 0.2 µM
Selectivity Index [3]: 200
IC50 [4]: 39.8 µM
chromatographic logD [1]: 4.4

Cc1cc2ccnc(N[C@@H]3CCNC[C@H]3C(=O)N[C@@H]3CCCOC3)c2[nH]c1=O (mixture of isomers)
IC50 [2]: 3.98 µM
IC50 [5]: > 39.8 µM
Selectivity Index [3]: > 10
IC50 [4]: > 50.1 µM
chromatographic logD [1]: 0.85

Cc1cc2c(-c3ccccc3)cnc(N[C@@H]3CCNC[C@H]3C(=O)NC3CCCCC3)c2[nH]c1=O (mixture of isomers)
IC50 [2]: 0.631 µM
Selectivity Index [3]: 40
IC50 [4]: 25.1 µM
chromatographic logD [1]: 3.36

Cc1cc2ccnc(N[C@@H]3CCNC[C@H]3C(=O)NCC3CCCC3)c2[nH]c1=O (mixture of isomers)
IC50 [2]: 1.58 µM
IC50 [5]: > 39.8 µM
Selectivity Index [3]: > 30
IC50 [4]: > 50.1 µM
chromatographic logD [1]: 2.36

Cc1cc2ccnc(N[C@@H]3CCNC[C@H]3C(=O)NC3CCOCC3)c2[nH]c1=O (mixture of isomers)
IC50 [2]: 2.51 µM
IC50 [5]: > 39.8 µM
Selectivity Index [3]: 5
IC50 [4]: 12.6 µM
chromatographic logD [1]: 0.71

Cc1cc2c(C3=CCOCC3)cnc(N[C@@H]3CCNC[C@H]3C(=O)NC3CCCCC3)c2[nH]c1=O (mixture of isomers)
IC50 [2]: 1.26 µM
Selectivity Index [3]: 30
IC50 [4]: 39.8 µM
chromatographic logD [1]: 2.07

Cc1cc2c(-c3cnn(C)c3)cnc(N[C@@H]3CCNC[C@H]3C(=O)NC3CCCCC3)c2[nH]c1=O (mixture of isomers)
IC50 [2]: 0.158 µM
Selectivity Index [3]: 100
IC50 [4]: 15.8 µM
chromatographic logD [1]: 1.47

Cc1cc2ccnc(N[C@@H]3CCNC[C@H]3C(=O)NCC(C)C)c2[nH]c1=O (mixture of isomers)
IC50 [2]: 2 µM
IC50 [5]: > 39.8 µM
Selectivity Index [3]: > 25
IC50 [4]: > 50.1 µM
chromatographic logD [1]: 1.6

Cc1cc2c(-c3ccsc3)cnc(N[C@@H]3CCNC[C@H]3C(=O)NC3CCCCC3)c2[nH]c1=O (mixture of isomers)
IC50 [2]: 0.1 µM
Selectivity Index [3]: > 501
IC50 [4]: > 50.1 µM
chromatographic logD [1]: 3.79

Cc1cc2c(C3=CCCCC3)cnc(N[C@@H]3CCNC[C@H]3C(=O)NC3CCCCC3)c2[nH]c1=O (mixture of isomers)
IC50 [2]: 1 µM
Selectivity Index [3]: 10
IC50 [4]: 12.6 µM
chromatographic logD [1]: 4.78

Cc1cc2ccnc(N[C@@H]3CCNC[C@H]3C(=O)N[C@H]3CCCOC3)c2[nH]c1=O (mixture of isomers)
IC50 [2]: 25.1 µM
IC50 [5]: > 39.8 µM
Selectivity Index [3]: > 2
IC50 [4]: > 50.1 µM
chromatographic logD [1]: 0.98

CO[C@@H](C)CNC(=O)[C@@H]1CNCC[C@H]1Nc1nccc2cc(C)c(=O)[nH]c12 (mixture of isomers)
IC50 [2]: 7.94 µM
IC50 [5]: > 39.8 µM
Selectivity Index [3]: 4
IC50 [4]: 31.6 µM
chromatographic logD [1]: 1.08

Cc1cc2ccnc(N[C@@H]3CCNC[C@H]3C(=O)NCC3CC3)c2[nH]c1=O (mixture of isomers)
IC50 [2]: 3.16 µM
IC50 [5]: > 39.8 µM
Selectivity Index [3]: > 15
IC50 [4]: > 50.1 µM
chromatographic logD [1]: 1.05

Cc1cc2c(-c3ccoc3)cnc(N[C@@H]3CCNC[C@H]3C(=O)NC3CCCCC3)c2[nH]c1=O (mixture of isomers)
IC50 [2]: 0.0398 µM
Selectivity Index [3]: 316
IC50 [4]: 12.6 µM
chromatographic logD [1]: 2.91

C/C=C/c1cnc(N[C@@H]2CCNC[C@H]2C(=O)NC2CCCCC2)c2[nH]c(=O)c(C)cc12 (racemic)
IC50 [2]: 0.126 µM
Selectivity Index [3]: 250
IC50 [4]: 31.6 µM
chromatographic logD [1]: 3.55

Cc1cc2cccc(N[C@@H]3CCNC[C@H]3C(=O)NC3CCCCC3)c2[nH]c1=O (racemic)
Papp at 3 h [6]: < 0.3 ×10⁻⁶ cm/s
IC50 [2]: 3.16 µM
Selectivity Index [3]: 10
IC50 [4]: 31.6 µM
chromatographic logD [1]: 2.52

Cc1cc2c(-c3cccs3)cnc(N[C@@H]3CCNC[C@H]3C(=O)NC3CCCCC3)c2[nH]c1=O (racemic)
IC50 [2]: 0.0501 µM
Selectivity Index [3]: 630
IC50 [4]: 31.6 µM
chromatographic logD [1]: 3.23

Cc1cc2c(-c3ccco3)cnc(N[C@@H]3CCNC[C@H]3C(=O)NC3CCCCC3)c2[nH]c1=O (racemic)
Papp at 3 h [6]: 3.8 ×10⁻⁶ cm/s
IC50 [2]: 0.0398 µM
IC50 [4]: 25.1 µM
logD [1]: 3.14

Cc1cc2ccnc(N[C@@H]3CCNC[C@H]3C(=O)NC3CCCC3)c2[nH]c1=O (relative stereo)
IC50 [2]: 2.51 µM
IC50 [5]: > 39.8 µM
Selectivity Index [3]: 15
IC50 [4]: 39.8 µM
chromatographic logD [1]: 1.87

Cc1cc2ccnc(N[C@@H]3CCNC[C@@H]3C(=O)NC3CCCCC3)c2[nH]c1=O (relative stereo)
IC50 [2]: 5.01 µM
IC50 [5]: > 39.8 µM
Selectivity Index [3]: > 10
IC50 [4]: > 50.1 µM
chromatographic logD [1]: 1.88

Cc1ccsc1-c1cnc(N[C@@H]2CCN(C)C[C@H]2C(=O)NC2CCCCC2)c2[nH]c(=O)c(C)cc12 (relative stereo)
IC50 [2]: 0.1 µM
Selectivity Index [3]: 316
IC50 [4]: 31.6 µM
chromatographic logD [1]: 5.13

Cc1cc2ccnc(N[C@@H]3CCNC[C@H]3C(=O)N[C@H](C)C(C)C)c2[nH]c1=O (relative stereo)
IC50 [2]: 5.01 µM
IC50 [5]: > 39.8 µM
Selectivity Index [3]: > 10
IC50 [4]: > 50.1 µM
chromatographic logD [1]: 1.89

Cc1cncc(-c2cnc(N[C@@H]3CCNC[C@H]3C(=O)NC3CCCCC3)c3[nH]c(=O)c(C)cc23)c1 (relative stereo)
IC50 [2]: 1.26 µM
Selectivity Index [3]: > 40
IC50 [4]: > 50.1 µM
chromatographic logD [1]: 2.51
